# Like-named read-outs stand apart in the source and are kept apart here.
# Tests used:
# [1] = biological target: T1, Kir2.1 Human Potassium Ion Channel (Homo sapiens, UniProt P63252); test: Kir2.1 QPatch CiPA assay; type: cell-based; details: mean, duplicate
# T1 construct: expressed in transfected cells
# T1 sequence (P63252 1-427): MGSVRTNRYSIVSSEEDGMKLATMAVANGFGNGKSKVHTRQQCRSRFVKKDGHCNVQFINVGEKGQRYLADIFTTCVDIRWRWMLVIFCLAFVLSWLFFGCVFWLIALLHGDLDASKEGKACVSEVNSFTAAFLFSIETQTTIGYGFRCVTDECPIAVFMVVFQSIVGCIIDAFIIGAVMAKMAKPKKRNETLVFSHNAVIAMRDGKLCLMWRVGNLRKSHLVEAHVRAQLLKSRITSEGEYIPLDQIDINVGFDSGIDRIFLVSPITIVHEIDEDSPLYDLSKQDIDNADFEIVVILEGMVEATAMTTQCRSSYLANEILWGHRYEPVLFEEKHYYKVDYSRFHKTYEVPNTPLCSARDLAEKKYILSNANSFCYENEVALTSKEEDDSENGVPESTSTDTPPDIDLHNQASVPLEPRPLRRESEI
# Description: Early drug discovery programs commonly assess hERG inhibition as the only indicator of potential cardiovascular safety concerns. Researchers have recently recommended a more rigorous evaluation of multiple cardiac ion channels to provide a more comprehensive cardiovascular risk assessment (Fermini, B., et al., A New Perspective in the Field of Cardiac Safety Testing through the Comprehensive In Vitro Proarrhythmia Assay Paradigm. J. Biomolec. Screening 2016, 21, 1-11). Given the promising initial results for 6, further evaluation was undertaken (in duplicate) in a Comprehensive in vitro Proarrhythmia Assay (CiPA) eight assay panel run on the QPatch HT (Sophion, Denmark) automated patch clamp system at three concentrations (3, 30, and 100 μM). All data were filtered for seal quality, seal drop, and current amplitude. A stock solution of the test compound at 30 mM concentration was prepared in DMSO.
# The parameters measured were the maximum inward current evoked on stepping to −120 mV from the test pulse. The peak current amplitude was calculated before and after compound addition and the amount of block was assessed by dividing the Test compound current amplitude by the Control current amplitude. Control is the mean hKir2.1 current amplitude collected 15 seconds at the end of the control; Test Compound is the mean hKir2.1 current amplitude peak and end collected in the presence of test compound at each concentration. The positive control was barium chloride.
# [2] = system: Enterococcus faecium LSI-3340; test: MIC panel (Laboratory Specialists, Inc.), E. faecium LSI-3340; type: cell-based; details: LSI3340, Cmpd. 6, vancomycin-resistant strain
# [3] = read-out: % Inhibition Kir2.1 (end current)
# [4] = read-out: % Inhibition Kir2.1 (peak current)
smiles,measurement,setting,value
"COc1ccc2ncc(F)c(CC[C@@]3(O)CO[C@@H]4[C@@H](NCc5cc6c(cn5)OCCO6)CO[C@@H]43)c2n1 [Compound 6, (3R, 3aS,6S,6aR)-6-(((2,3-dihydro-[1,4]dioxino[2,36-c]pyridin-7-yl)methyl)amnino)-3-(2-(3-fluoro-6-methoxy-1,5-naphthyridin-4-yl)ethyl)hexahydrofuro[3,2-b]furan-3-ol]",inhibition at 3 µM,[1]; [3],8.3%
same,inhibition at 3 µM,[1]; [4],6.9%
same,inhibition at 30 µM,[1]; [3],19.6%
same,inhibition at 30 µM,[1]; [4],18%
same,inhibition at 100 µM,[1]; [3],31.9%
same,inhibition at 100 µM,[1]; [4],29.7%
same,MIC,[2],0.25 µg/mL
